Test results published in patent US20260083751A1, “ALLOSTERIC MODULATORS OF ANDROGEN RECEPTOR COACTIVATOR RECRUITMENT FOR CRPC THERAPY” (University of Pittsburgh – Of the Commonwealth System of …, priority 2022, published 2026).

Key:
Assay type in all cases: cell-based
AR-TIF2 PPI [1] = target: T1, AR-TIF2 PPI (Homo sapiens, UniProt P10275); assay: AR-TIF2 PPIB HCS assay: inhibition of DHT-induced AR-TIF2 PPI formation (compound then DHT); conditions: U-2 OS cells
T1 construct: AR-LBD residues (662-919) were incorporated into one biosensor; expressed in transfected cells; host or cells: U-2 OS osteosarcoma cells, coinfected with recombinant adenoviruses
T1 sequence (P10275 662-919): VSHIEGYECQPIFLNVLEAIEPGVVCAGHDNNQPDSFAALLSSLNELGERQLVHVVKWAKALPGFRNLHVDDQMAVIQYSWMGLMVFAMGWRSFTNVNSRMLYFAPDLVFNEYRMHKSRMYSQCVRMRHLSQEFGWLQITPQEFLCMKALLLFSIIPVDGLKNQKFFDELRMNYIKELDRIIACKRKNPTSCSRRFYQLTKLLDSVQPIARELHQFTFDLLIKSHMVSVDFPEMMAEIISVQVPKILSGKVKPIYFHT
Procedure: (§1) AR-TIF2 Protein-Protein Interaction Biosensor Assay: The AR-TIF2 PPIB HCS assay was performed in U-2 OS osteosarcoma cells as described previously (Fancher et al., Assay Drug Dev Technol. 2016, 14:453-477; Fancher et al., Assay Drug Dev Technol. 2018, 16:297-319; Hua et al., Assay Drug Dev Technol. 2014, 12:395-418; Hua et al., Methods Mol Biol. 2018, 1683:211-227). Briefly, U-2 OS cells were coinfected with recombinant adenovirus biosensor expression constructs and seeded at 2,500 cells per well in 384-well collagen-coated microplates (Greiner Bio-One #781956) and plates were incubated overnight at 37° C. in 5% CO2 and 95% humidity. […] After the appropriate time, assay plates were fixed by transfer of 50 μL of pre-warmed (37° C.) 7.4% formaldehyde and 2 μg/mL Hoechst 33342 in PBS and incubation at room temperature for 30 minutes. Liquid was aspirated, plates were washed twice with 85 μL PBS, leaving the final wash in the plate. Plates were sealed with adhesive aluminum plate seals, and fluorescent images of three fields of view were acquired in the DAPI (Hoechst stained nuclei), FITC (TIF2-GFP) and Texas Red (AR-RFP) channels on an ImageXpress® Micro (IXM) automated HCS platform (Molecular Devices LLC, Sunnyvale, CA) using a 10× Plan Fluor 0.3 NA objective. Images were analyzed using the Translocation Enhanced (TE) image analysis module of the MetaXpress® software (Molecular Devices, LLC, San Jose, CA) as described previously (Fancher et al., Assay Drug Dev Technol. 2016, 14:453-477; Fancher et al., Assay Drug Dev Technol. 2018, 16:297-319; Hua et al., Assay Drug Dev Technol. 2014, 12:395-418; Hua et al., Methods Mol Biol. 2018, 1683:211-227).
(§2) For the 96-well AR-LBD H^3-DHT radioligand binding assay, eight minimum and maximum plate control wells were utilized to normalize the data. For the PC cell line growth inhibition assays the DMSO control data from the TO and T72 assay plates was used to assess the dynamic range of the T0 to T72 cell growth, and to calculate S:B ratios and Z′-factor coefficient statistics for the assay signal window (T0 to T72). To normalize the 72 h compound exposure PC growth inhibition data, the signals from the compound treated wells were processed and expressed as % of the T72 DMSO plate controls. IC50 and GI50 values for each of the bioassays were calculated using GraphPad Prism 9 software to plot and fit data to curves using the Sigmoidal dose response variable slope equation Y=Bottom+[Top-Bottom]/[1+10^(Log EC50−X)*HillSlope].
(§3) A positional AR-TFI2 protein-protein interaction biosensor (PPIB) assay was used to identify small molecules that inhibited DHT-induced formation of AR-TIF2 PPIs and/or disrupted pre-existing AR-TIF2 PPIs (Fancher et al., Assay Drug Dev Technol 2016, 14(8):453-477; Fancher et al., Assay Drug Dev Technol 2018, 16(6):297-319; Hua et al., Assay Drug Dev Technol 2014, 12:395-418; Hua et al., Methods Mol biol 2018, 1683:211-227). AR-LBD residues (662-919) were incorporated into one biosensor and TIF2 residues (725-840) containing the 3rd NR box LXXLL motif into the second interacting biosensor partner (Id.) The AR-TIF2 PPIB recapitulates the orthosteric ligand (OSL)-induced translocation of AR from the cytoplasm into the nucleus where PPIs with TIF2 result in colocalization of both biosensors in the nucleolus. Using three libraries, a total of 143,535 compounds were screened—a 10,000-compound ChemDiv PPI focused diversity library, a 50,000-compound ChemBridge diversity library, and a 83,535-compound library provided by the NCI's Chemical Biology Consortium. The 10K and 50K diversity libraries were subsets of 142K and 810K parent libraries, enabling screening of a representative subset of >1×10^6 compounds. AR-TIF2 PPI inhibitor and disruptor actives were confirmed in the HCS assay and counter screens designed to identify and exclude nuisance/interference or non-selective compounds (Fancher et al., Assay Drug Dev Technol 2018, 16(6):297-319). […]

AR-TIF2 PPI [2] = target: T1, AR-TIF2 PPI; assay: AR-TIF2 PPIB HCS assay: disruption of preformed DHT-induced AR-TIF2 PPI complexes (DHT then compound); conditions: U-2 OS cells
Procedure: as §1, §2, §3

[3] = GI50 given in Tables 4-6 (test not described); conditions: cell line not stated
[4] = 25 nM DHT, read-out: Inhibition DHT-induced AR-TIF2 PPI Formation IC50
[5] = compound then DHT, read-out: C then D IC50
[6] = DHT then compound, read-out: D then C IC50
[7] = 25 nM DHT, read-out: Disruption of DHT-induced AR-TIF2 PPIs IC50

IC50 (AR-TIF2 PPI [1]; [4]) [µM] | IC50 (AR-TIF2 PPI [1]; [5]) [µM] | IC50 (AR-TIF2 PPI [2]; [6]) [µM] | IC50 (AR-TIF2 PPI [2]; [7]) [µM] | Compound | GI50 [3] [µM]
> 100 | > 100 | > 100 | > 100 | Cc1nsc(NC(=O)N2CCC(Cn3ccnc3)CC2)n1 [Compound S2-7] | > 100
– | 2.42 | 16 | – | Cc1c(-c2ccccc2F)[nH]c2ccc(CNC(=O)c3ccc(CO)o3)cc12 [Compound S3-14] | > 100
5.38 | 5.64 | – | 24.8 | Cc1ccccc1-c1cc(O)c2c(c1)CN(c1nc(C(N)=O)cs1)CCO2 [Compound S1-1] | > 100
– | 3.87 | 8.8 | – | Cc1cccc2c(-c3ccc(O)c(F)c3)c[nH]c12 [Compound S3-17] | 99
0.62 | – | 5.8 | 5.64 | Cc1nsc(NC(=O)N2CCC(Sc3ccccc3C)CC2)n1 [Compound S2-6] | > 100
– | 6.7 | 30.6 | – | Cc1c(-c2ccc(F)cc2)[nH]c2ccc(CNC(=O)c3ccc(CO)o3)cc12 [Compound S3-15] | > 100

The next lines start with the compound.

Compound | IC50 (AR-TIF2 PPI [1]; [4]) [µM] | IC50 (AR-TIF2 PPI [1]; [5]) [µM] | IC50 (AR-TIF2 PPI [2]; [6]) [µM] | IC50 (AR-TIF2 PPI [2]; [7]) [µM] | GI50 [3] [µM]
Cc1ccccc1-c1cc(O)c2c(c1)CN(c1cc(N)ncn1)CCO2 [Compound S1-4] | > 100 | > 100 | > 100 | > 100 | > 100
CC(=O)NCCC(=O)NCc1ccc2[nH]c(-c3ccccc3F)c(C)c2c1 [Compound S3-13] | – | 7.98 | 37.6 | – | > 100
Cc1nc(N)cc(N2CCOc3c(O)cc(-c4ccccc4C)cc3C2)n1 [Compound S1-2] | – | 14.5 | 63 | – | 51.9
Cc1c(-c2ccccc2F)[nH]c2ccc(CNC(=O)CCc3cn[nH]c3)cc12 [Compound S3-11] | 3.11 | 3.25 | – | 26.1 | > 100
Cc1c(-c2ccccc2F)[nH]c2ccc(CNC(=O)CCc3cnccn3)cc12 [Compound S3-12] | – | 5.13 | 24.7 | – | > 100
CNC(=O)c1ccc(-c2c[nH]c3c(C)cccc23)cc1 [Compound S3-21] | ~36 | 36.1 | > 100 | > 100 | > 100
Cc1ccccc1-c1cc(O)c2c(c1)CN(c1nccs1)CCO2 [Compound S1-3] | – | 30.5 | 41.8 | – | > 100
COc1cc(-c2ccc(C)s2)cc2c1OCCN(c1nc(C(N)=O)cs1)C2 [Compound S1-5] | – | 26.2 | > 100 | > 100 | > 100
